This note sets out measurements from US11629144B2, “Crystal form of monomethanesulfonate of deuterated 3-(4,5-substituted aminopyrimidine)phenyl compound and preparation method therefor” (NANJING CHUANGTE PHARMACEUTICAL TECHNOLOGY CO., LTD., priority 2018, dated 2023).

“Also recorded” adds a separate entry of the source.

Holding throughout (type): physicochemical
Series [1] can be described thus: Stability differential scanning calorimetry (DSC) test. The settings on record: rate of temperature rise 10.00° C./min. The procedure: 1. Stability Differential Scanning Calorimetry (DSC) Test
Instrument: NETZSCH DSC 204 type differential thermal analyzer
Rate of temperature rise: 10.00° C./min
(In general: DSC measures the heat that a sample takes up or gives off during a temperature scan.)

A short description of series [2]: Crystal influence factor test (high temperature, high humidity, illumination, 15 days). The following applies: high-humidity and illumination conditions for 15 days. The text has this: 2. Crystal Influence Factor Test
Another series is described as follows: Accelerated lofting test. Also on record: Maximum individual impurity / Loss on drying: unit not given here. The following applies: 40±2° C., RH 75%±5%; for Loss on drying: limit ≤1.0; for Maximum individual impurity: limit ≤2.50; for Total impurity: limit ≤4.0%; for Methanesulfonic acid (%): limit ≤15.0-15.8%; for Content (%): should not be less than 78.0%. The procedure: 3. Accelerated Lofting Test
A sample of the crystal form B of the monomethanesulfonate of the compound shown in formula I was placed in a petri dish and was sampled and tested at 0 hour, 1 month, 2 months, 3 months, and 6 months respectively at a temperature of 40±2° C. and a relative humidity of 75%±5%, with the results shown in Table 1: […]

Series [3] can be described thus: Long-term lofting experiments. The settings on record: 25±5° C., RH 60%±10%; for Loss on diying: limit ≤1.0; for Maximum individual impurity: limit ≤2.50; for Total impurity: limit ≤4.0%; for Methanesulfonic acid (%): limit ≤15.0-15.8%; for Content (%): should not be less than 78.0%. How it is done: 4. Long-Term Lofting Experiments
A sample of the crystal form B of the monomethanesulfonate of the compound shown in formula I was placed in a petri dish under the conditions of the temperature being 25±5° C. and the relative humidity being 60%±10% and was sampled and tested at 0 hour, 3 months, and 6 months respectively, with the results shown in Table 2: […]

As for `[2H]C([2H])([2H])N(C)CCN(C)c1cc(OC)c(Nc2nccc(-c3cn4c5c(cccc35)CCC4)n2)cc1NC(=O)C=C` [crystal form A], the “DSC peak (stability of heat exchange range)” value in series [1] was “a single peak value is observed”. The “Crystal transformation (X-ray diffraction pattern)” value in series [2] is “can be converted into the crystal form B of the monomethanesulfonate under the high-temperature or high-humidity condition; also recorded: converted to the crystal form B of the monomethanesulfonate at high temperature and high humidity”.

As to `[2H]C([2H])([2H])N(C)CCN(C)c1cc(OC)c(Nc2nccc(-c3cn4c5c(cccc35)CCC4)n2)cc1NC(=O)C=C` [crystal form B], the Loss on drying was determined as 0.08 in the series “Accelerated lofting test” (0 month); 0.03 in “Accelerated lofting test” (1 month); 0.03 in the series “Accelerated lofting test” (2 months); 0.03 in “Accelerated lofting test” (3 months); 0.14 in the series “Accelerated lofting test” (6 months). The Maximum individual impurity in “Accelerated lofting test” (0 month) turned out to be 1.62; in the series “Accelerated lofting test” (1 month), 1.87; in the series “Accelerated lofting test” (2 months), 1.42; in “Accelerated lofting test” (3 months), 1.62; in “Accelerated lofting test” (6 months), 1.61; in series [3] (0 month), 1.62. In addition, the Maximum individual impurity is listed as 1.65 in series [3] (3 months) and 1.48 in series [3] (6 months). Besides, the Total impurity in “Accelerated lofting test” (0 month) is listed as 2.55%; in “Accelerated lofting test” (1 month) it was 3.12%; in the series “Accelerated lofting test” (2 months), 2.72%; in the series “Accelerated lofting test” (3 months) it was 2.72%; in “Accelerated lofting test” (6 months), 2.74%; in series [3] (0 month), 2.55%. The Total impurity worked out at 2.78% in series [3] (3 months) and 2.50% in series [3] (6 months). The “Methanesulfonic acid (%)” value is reported as 15.5% in “Accelerated lofting test” (0 month); 15.2% in “Accelerated lofting test” (1 month); 15.4% in “Accelerated lofting test” (2 months); 15.4% in “Accelerated lofting test” (3 months); 15.4% in “Accelerated lofting test” (6 months); 15.5% in series [3] (0 month). For the same compound, the “Methanesulfonic acid (%)” value in series [3] (3 months) and in series [3] (6 months) was 15.4% each time. The “Content (%)” value is 80.5% in “Accelerated lofting test” (0 month); 82.2% in the series “Accelerated lofting test” (1 month); 82.3% in “Accelerated lofting test” (2 months); 79.5% in “Accelerated lofting test” (3 months); 80.8% in the series “Accelerated lofting test” (6 months); 80.5% in series [3] (0 month). The “Content (%)” value in series [3] (3 months) was found to be 80.0%; in series [3] (6 months), 82.3%. Moreover, the “Crystal form by X-ray powder diffraction pattern compared with before the experiments” value (in “Accelerated lofting test” (6 months); in series [3] (6 months)) was “the crystal form was not changed” throughout. The “Change of all investigation items” value (in the series “Accelerated lofting test” (up to 6 months); in series [3] (up to 6 months)) was “all investigation items have no obvious change” in each case. Moreover, the Loss on diying in series [3] (0 month) is listed as 0.08; in series [3] (3 months), 0.08; in series [3] (6 months), 0.6.
